Experimental data taken from patent publication US11529342B2, “Sorbic and benzoic acid and derivatives thereof enhance the activity of a neuropharmaceutical” (Los Angeles Biomedical Research Institute at Harbor-UCLA …, priority 2009, dated 2022).
“Also recorded” adds a separate entry of the source.

What was measured:
rats = assay: Forced swim test (FST); type: in vivo; conditions: 500 mg/kg; for Immobility time (%): 5-min test, vehicle 46.94 ± 4.6; for duration of immobility compared to the vehicle control group: FST
Experimental: Following acclimation at least 7 days in the animal facility prior to initiation of behavioral testing, the animals (rats) were subjected to the forced swim test (FST). The method of the […] has been used in previous animal studies of depression, which was modified by Cryan from the Porsolt's FST. (Porsolt et al, 1977; Cryan et al, 2002) The test was performed using a acrylic cylinder (diameter, 20 cm; height, 40 cm) filled to a height of 30 cm with 25° C. water. Rats were processed to a 15-min conditioning swim. Following 24 h after their first exposure, the rats were again placed in the swim apparatus for 5 min. The behavior of rats was observed 5 min after the administration of various drug treatments or 0.9% saline (control). All behavioral testing was conducted between 1600-1800 h. On. the study day, the total periods of immobility during the 5-min testing period were recorded using the EthoVision Basic V 3.1 analysis program (Noldus, Wageningen, Netherlands). For the present experiment, the immobility threshold was set at 15% and a fixed averaging interval of 1 second was chosen to smooth the mobility parameter in EthoVision software. Below the immobile threshold, the animal is considered immobile. Using the settings, the activity of all rats was analyzed automatically and quantitatively for mobility and numbers of crossing vertical central line in the FST.

Male 129 SVE adult mice [1] = assay: Acoustic startle habituation in mice, with and without amphetamine disruption; type: in vivo; conditions: for startle habituation, correction of amphetamine-induced disruption: amphetamine 10 mg/kg 30 minutes before the experiment
Excerpt: (§1) Therefore, to test the hypothesis that combinational NMDA-enhancing agent treatment has better efficacy than individual agent alone, we tested startle habituation and PPI in animals receiving single NMDA-enhancing agents, sarcosine (N-methylglycine, a glycine transporter-1 inhibitor), benzoate (a D-amino acid oxidase inhibitor), the combination of both agents or the vehicle. We also tested the hypothesis in a well accepted pharmacological model of schizophrenia, amphetamine--disruption of startle habituation and PPI.
For habituation, we present six trials of a single acoustic stimulus to each mouse. To provide a consistent acoustic environment and to mask external noises, maintain a continuous background noise level of 70 dB within each startle chamber. We collected the peak or average response from each mouse on each of six trials, then averaged the six responses together for each mouse. Five more trials at the end of PPI were done. The results were averaged and compared to the original six trials. The difference of startle responses between the initial six and the last five trials were considered the amount of habituation. Analyses include the independent variable (e.g., vehicle or drug treatment) as a factor in analyses of variance (ANOVA) on the dependent measures (difference of the average of the first and last […]).
(§2) There were a total of 36 trials in the experiments. The three prepulse stimuli were with a duration of 20 msec. For each mouse the following metrics were determined: 1) Average response magnitude on pulse--only trials 1 to 6 and 32 to 36; 2)Average response magnitude in each of the four trial types between trials 7 and 31 inclusively (i.e., ten pulse-only trials and five each of the three prepulse variations). The first block of pulse-only trials were analyzed as measures of startle reactivity. The first and last blocks of pulse-only trials were analyzed together in a repeated measure ANOVA to assess habituation of acoustic startle across the test session. The […] (3, 6, or 12 dB above background) derived from trials 7 to 31 were used to assess PPI which was calculated for each mouse as: Percentage score: PPI=100%×{[pulse-only units−(prepulse pulse units)]/(pulse-only units)}.
Male 129 SVE adult mice were first tested at baseline. Four groups of 10 mice each were treated with sarcosine (200 mg/kg), benzoate (100 mg/kg), a combination of both sarcosine and benzoate (same doses as the individual treatment), or with vehicle for one week before the test. The mice continued to receive the drug until one week later when amphetamatine (10 mg/kg) was administered 30 minutes before the experiments.

Male 129 SVE adult mice [2] = assay: Prepulse inhibition (PPI) of acoustic startle, amphetamine disruption; type: in vivo; conditions: for PPI, correction of disruption by amphetamine: sarcosine 200 mg/kg, benzoate 100 mg/kg or both, amphetamine 10 mg/kg 30 minutes before
Excerpt: as §1
For the systematic investigation of the neurobiological systems that modulate sensorimotor inhibition, startle magnitude was investigated. Startle magnitude is reduced when the pulse stimulus is preceded 30 to 500 msec by a weak prepulse. This inhibition (“gating”) of a motor response elicited by a weak sensory event, termed PPI, provides an operational measure of sensorimotor gating. Prepulse stimuli of 3, 6, or 12 dB above the 70 dB background noise inhibit the startle response elicited by 120-dB pulse stimuli.
Prestimuli used in intranodal studies of sensorimotor gating of acoustic startle are by the delivery of a discrete acoustic prepulse several msec before the startle pulse, with an intensity below startle threshold. […]
as §2, with “The three prepulse stimuli were with a duration of 20 msec.” left out, “units)}. […]” for “units)}.”

schizophrenia patients [3] = assay: 6-week randomized double-blind placebo-controlled add-on trial in schizophrenia, efficacy (PANSS, SANS, Quality of Life, GAF); type: in vivo, human; conditions: 1000-mg/day adjunctive to atypical antipsychotics, 6 weeks, n=18 per group
Experimental: The research protocol was approved by the Institutional Review Boards (IRB) of the institute. Patients were screened and evaluated by the research psychiatrists. After complete description of the study to the subjects, written informed consent was obtained in line with the IRB's guidelines. The Structured Clinical Interview for DSM-IV was conducted for the diagnosis.
The dosing for the concurrent antipsychotics (all atypical antipsychotics), was an optimal dosing strategy which minimize side effects, especially extrapyramidal side effects (EPS), and can still yield favorable efficacy. […]
All patients were then randomly assigned under double-blind conditions to receive a 6-week trial of placebo, or sodium benzoate (1 grams) daily. […] Patient's compliance and safety were closely monitored by the research psychiatrists and the inpatient nursing staff.
The primary outcome measures were psychopathology changes measured by PANSS (3) and, Scales for the Assessment of Negative symptoms (SANS) (4) total scores, Quality of Life scale (10 items for inpatient use) (1, 5), and Global Assessment of Function (Axis V in DSM IV) (2). […]
Clinical ratings were performed by the research psychiatrists who were trained and experienced in the rating scales. Inter-rater reliability was analyzed with the ANOVA test. […]

schizophrenia patients [4] = assay: 6-week add-on trial in schizophrenia, safety and side-effect assessments; type: in vivo, human; conditions: 6 weeks
Excerpt: All patients were then randomly assigned under double-blind conditions to receive a 6-week trial of placebo, or sodium benzoate (1 grams) daily. Patients were randomized in clusters of six subjects, without stratification, through a computer-generated randomization table to receive placebo or active drugs in a 1:1 ratio. To ensure concealment of the randomization assignment, study medication was provided in coded containers with supply of identical-appearing capsules of placebo or either of active compounds. The research pharmacist implemented random allocation and masked treatment assignment was communicated by telephone to research staff. Patients, caregivers, and investigators (except for the investigational pharmacist) were all masked to the assignment. Patient's compliance and safety were closely monitored by the research psychiatrists and the inpatient nursing staff.
Side-effect assessments included Simpson-Angus Rating Scale for EPS (6), Abnormal Involuntary Movement Scale (AIMS) for dyskinesia (7), and Barnes Akathesia Scale (8). Systemic side effects of treatments were evaluated by means of routine physical and neurological examinations, laboratory tests, and reviewed by applying the Udvalg for Kliniske Undersogelser (UKU) Side-effects Rating Scale (9).

[5] = mice, sarcosine 200 mg/kg, benzoate 100 mg/kg or both

SMILES	Immobility time (%) (rats)	duration of immobility compared to the vehicle control group (rats)	startle habituation, correction of amphetamine-induced disruption (Male 129 SVE adult mice [1]; [5])	PPI, correction of disruption by amphetamine (Male 129 SVE adult mice [2])	other results
C/C=C/C=C/C(=O)[O-].[K+] [Potassium Sorbate, potassium sorbate]	27.64 ± 6.2	decrease the duration of immobility significantly			
O=C([O-])c1ccccc1.[Na+] [Sodium Benzoate, sodium benzoate]	40.17 ± 3.3	decrease the duration of immobility significantly	partially correct the deficit; also recorded: better than sarcosine and close to effect seen in the combination treatment; also recorded: only partially corrected the deficit; also recorded: better than sarcosine and close to that seen in the combination treatment	partially corrected	startle habituation (difference of startle responses between initial and last trials) (Male 129 SVE adult mice [1]; mice treated one week, sarcosine 200 mg/kg, benzoate 100 mg/kg or both, no amphetamine): close to the effect seen in the combination treatment; positive and negative symptoms and quality of life versus placebo (schizophrenia patients [3]): significantly improve positive and negative symptoms and quality of life than placebo; safety and tolerability (schizophrenia patients [4]; adjunctive therapy): good safety and tolerability; treatment-emergent side effects (schizophrenia patients [4]; benzoate versus placebo): all mild, short-lived, and not warranting medical treatment
CC(N)Cc1ccccc1 (stereo not drawn) [amphetamine, reference compound]					effect of amphetamine on startle habituation (Male 129 SVE adult mice [1]; mice, amphetamine 10 mg/kg 30 minutes before the experiments): disrupted the habituation; effect of amphetamine on PPI (Male 129 SVE adult mice [2]; amphetamine 10 mg/kg 30 minutes before the experiments): disrupted the inhibition in all treatments
CNCC(=O)O [sarcosine, N-methylglycine, reference compound]			combination treatment>benzoate>sarcosine	partially corrected	startle habituation, correction of amphetamine-induced disruption (Male 129 SVE adult mice [1]; mice, sarcosine 200 mg/kg, benzoate 100 mg/kg or both, listed as NMG): partially correct the deficit; also recorded: only partially corrected the deficit
